Reference: patent US10787436B2, “Inhibitors of cyclin-dependent kinase 7 (CDK7)” (Dana-Farber Cancer Institute, Inc., priority 2012, dated 2020)
Read-outs that look alike come from different tables or passages of the source.

Assays:
143B = experiment: Proliferation assay, CellTiter-Glo, 72 hour; assay type: cell-based; settings: osteosarcoma cell line, read-out: Inhibition of proliferation, 143B
SAOS = experiment: Proliferation assay, CellTiter-Glo, 72 hour; assay type: cell-based; settings: osteosarcoma cell line, read-out: Inhibition of proliferation, SAOS
CDK7 = CDK7 (Homo sapiens (Human), UniProt P50613); experiment: In vitro inhibitory activity against CDK7 (Table 1); assay type: biochemical
Sequence of CDK7 (P50613 whole entry, looked up): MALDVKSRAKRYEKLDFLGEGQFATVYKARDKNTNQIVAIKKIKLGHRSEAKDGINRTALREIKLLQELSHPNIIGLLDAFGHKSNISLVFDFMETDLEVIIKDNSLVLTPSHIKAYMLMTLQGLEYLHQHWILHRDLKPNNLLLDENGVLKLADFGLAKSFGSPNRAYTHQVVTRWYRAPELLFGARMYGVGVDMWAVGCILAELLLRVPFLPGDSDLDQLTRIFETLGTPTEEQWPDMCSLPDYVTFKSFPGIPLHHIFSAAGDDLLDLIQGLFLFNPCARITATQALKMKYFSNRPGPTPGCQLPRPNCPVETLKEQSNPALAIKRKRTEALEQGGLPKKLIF
Sequence of CDK7 (P51946 whole entry partner, looked up): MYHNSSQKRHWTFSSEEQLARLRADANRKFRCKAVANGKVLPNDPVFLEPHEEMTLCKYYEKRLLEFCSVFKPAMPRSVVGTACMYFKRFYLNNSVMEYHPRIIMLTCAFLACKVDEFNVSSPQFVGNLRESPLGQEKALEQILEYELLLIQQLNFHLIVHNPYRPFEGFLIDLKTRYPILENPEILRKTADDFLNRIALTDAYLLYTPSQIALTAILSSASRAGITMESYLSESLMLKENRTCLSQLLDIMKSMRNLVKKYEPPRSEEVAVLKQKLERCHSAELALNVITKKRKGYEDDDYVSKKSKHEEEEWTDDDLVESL
Sequence of CDK7 (P51948 whole entry partner, looked up): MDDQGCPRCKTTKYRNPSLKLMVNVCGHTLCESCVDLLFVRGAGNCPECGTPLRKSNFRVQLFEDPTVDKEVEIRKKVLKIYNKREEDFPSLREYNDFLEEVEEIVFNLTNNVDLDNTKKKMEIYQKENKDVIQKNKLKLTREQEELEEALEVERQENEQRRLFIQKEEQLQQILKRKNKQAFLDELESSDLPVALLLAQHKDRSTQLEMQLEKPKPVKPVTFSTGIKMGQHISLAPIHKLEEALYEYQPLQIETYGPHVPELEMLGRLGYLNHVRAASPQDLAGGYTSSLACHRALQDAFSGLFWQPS
Experimental: In vitro kinase assays with immunoprecipitated proteins (or recombinant CAK complexes) were performed as follows. Kinase reactions were performed in 25 μL of final volume of reaction buffer (50 mM Hepes, pH 7.5, 150 mM NaCl, 10 mM MgCl2, 5% glycerol, 25 μM ATP, and 10 μCi of [γ-32P]ATP). Each reaction contained 1 μg of RNAP II. Incubation was at 30° C. for 30-45 min. Reactions were terminated by addition of 5 μL of 5×SDS-PAGE sample buffer and incubated at 95° C. for 5 min. Reactions were analyzed by SDS-PAGE, and the dried gel was exposed to film or PhosphorImager plate.

A673 = experiment: Proliferation assay, CellTiter-Glo, 72 hour; assay type: cell-based; settings: read-out: Inhibition of proliferation, A673
Hs863T = experiment: Proliferation assay, CellTiter-Glo, 72 hour; assay type: cell-based; settings: Ewing's sarcoma cell line, read-out: Inhibition of proliferation, Hs863T
hTERT-HME1 = experiment: Proliferation assay, CellTiter-Glo, 72 hour; assay type: cell-based; settings: read-out: Inhibition of proliferation, hTERT-HME1
RS4-11 = experiment: Proliferation assay, CellTiter-Glo, 72 hour; assay type: cell-based; settings: read-out: Inhibition of proliferation, RS4-11
MNNG-HOS Cl#5 = experiment: Proliferation assay, CellTiter-Glo, 72 hour; assay type: cell-based; settings: osteosarcoma cell line, read-out: Inhibition of proliferation, MNNG-HOS Cl#5
THP-1 = experiment: Proliferation assay, CellTiter-Glo, 72 hour; assay type: cell-based; settings: read-out: Inhibition of proliferation, THP-1
MCF7 = experiment: Proliferation assay, CellTiter-Glo, 72 hour; assay type: cell-based; settings: read-out: Inhibition of proliferation, MCF7
Hs822T = experiment: Proliferation assay, CellTiter-Glo, 72 hour; assay type: cell-based; settings: Ewing's sarcoma cell line, read-out: Inhibition of proliferation, Hs822T
MLK3 = MLK3 (Homo sapiens (Human), UniProt Q16584); experiment: Life Technologies LanthaScreen Eu kinase assay, MLK3; assay type: binding
Sequence of MLK3 (Q16584 whole entry): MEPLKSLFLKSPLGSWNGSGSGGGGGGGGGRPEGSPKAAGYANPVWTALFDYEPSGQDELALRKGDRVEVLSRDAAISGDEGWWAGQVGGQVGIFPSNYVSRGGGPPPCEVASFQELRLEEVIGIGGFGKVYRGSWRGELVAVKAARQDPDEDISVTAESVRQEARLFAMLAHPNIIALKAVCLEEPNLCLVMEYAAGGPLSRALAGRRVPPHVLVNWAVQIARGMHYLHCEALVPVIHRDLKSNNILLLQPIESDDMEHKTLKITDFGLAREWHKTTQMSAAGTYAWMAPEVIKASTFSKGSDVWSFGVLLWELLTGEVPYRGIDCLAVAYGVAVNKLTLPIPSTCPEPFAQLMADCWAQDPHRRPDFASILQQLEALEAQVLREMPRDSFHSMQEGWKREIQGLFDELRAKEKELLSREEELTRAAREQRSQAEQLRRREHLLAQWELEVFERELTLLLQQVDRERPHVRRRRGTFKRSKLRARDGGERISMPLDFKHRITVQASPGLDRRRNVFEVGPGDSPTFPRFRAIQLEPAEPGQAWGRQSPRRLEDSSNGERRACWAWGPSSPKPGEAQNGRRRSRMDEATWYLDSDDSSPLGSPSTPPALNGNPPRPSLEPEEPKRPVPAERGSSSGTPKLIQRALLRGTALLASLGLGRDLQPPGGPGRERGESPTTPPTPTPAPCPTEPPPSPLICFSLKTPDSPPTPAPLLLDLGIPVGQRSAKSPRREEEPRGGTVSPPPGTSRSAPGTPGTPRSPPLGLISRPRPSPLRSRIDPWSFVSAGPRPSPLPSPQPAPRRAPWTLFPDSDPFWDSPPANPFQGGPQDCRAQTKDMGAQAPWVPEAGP

MCF10A = experiment: Proliferation assay, CellTiter-Glo, 72 hour; assay type: cell-based; settings: non-tumorigenic breast epithelial cell line, read-out: Inhibition of proliferation, MCF10A
SKBR3 = experiment: Proliferation assay, CellTiter-Glo, 72 hour; assay type: cell-based; settings: read-out: Inhibition of proliferation, SKBR3
RD-ES = experiment: Proliferation assay, CellTiter-Glo, 72 hour; assay type: cell-based; settings: Ewing's sarcoma cell line, read-out: Inhibition of proliferation, RD-ES
MDA-MB231 = experiment: Proliferation assay, CellTiter-Glo, 72 hour; assay type: cell-based; settings: read-out: Inhibition of proliferation, MDA-MB231
IRAK1 = IRAK1 (Homo sapiens (Human), UniProt P51617); experiment: Life Technologies Adapta kinase assay, IRAK1; assay type: biochemical; settings: superscript b (footnote not given; tested at 100 nM and 1 μM)
Sequence of IRAK1 (P51617 whole entry): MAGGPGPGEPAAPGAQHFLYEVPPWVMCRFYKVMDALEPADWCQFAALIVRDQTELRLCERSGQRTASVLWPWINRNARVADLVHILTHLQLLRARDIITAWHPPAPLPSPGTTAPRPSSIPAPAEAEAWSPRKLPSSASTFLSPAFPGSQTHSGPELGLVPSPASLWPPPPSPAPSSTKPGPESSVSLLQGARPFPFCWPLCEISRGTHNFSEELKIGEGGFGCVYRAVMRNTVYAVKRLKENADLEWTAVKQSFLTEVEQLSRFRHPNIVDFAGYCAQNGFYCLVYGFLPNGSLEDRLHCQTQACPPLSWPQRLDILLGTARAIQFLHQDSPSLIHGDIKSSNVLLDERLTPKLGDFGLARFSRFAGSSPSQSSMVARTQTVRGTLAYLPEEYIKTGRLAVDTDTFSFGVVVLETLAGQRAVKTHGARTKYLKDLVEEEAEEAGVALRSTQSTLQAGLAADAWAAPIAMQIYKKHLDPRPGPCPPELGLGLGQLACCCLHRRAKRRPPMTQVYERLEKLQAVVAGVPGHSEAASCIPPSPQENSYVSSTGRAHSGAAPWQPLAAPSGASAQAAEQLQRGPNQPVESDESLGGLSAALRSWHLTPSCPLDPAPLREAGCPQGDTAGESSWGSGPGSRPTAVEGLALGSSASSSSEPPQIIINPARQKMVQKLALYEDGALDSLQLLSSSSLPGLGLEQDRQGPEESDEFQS

SK-ES = experiment: Proliferation assay, CellTiter-Glo, 72 hour; assay type: cell-based; settings: Ewing's sarcoma cell line, read-out: Inhibition of proliferation, SK-ES
T47D = experiment: Proliferation assay, CellTiter-Glo, 72 hour; assay type: cell-based; settings: breast cancer cell line, read-out: Inhibition of proliferation, T47D
HL60 = experiment: Proliferation assay, CellTiter-Glo, 72 hour; assay type: cell-based; settings: read-out: Inhibition of proliferation, HL60
MV4-11 = experiment: Proliferation assay, CellTiter-Glo, 72 hour; assay type: cell-based; settings: read-out: Inhibition of proliferation, MV4-11

SMILES: Cc1ccc(Nc2ncc(C)c(-c3c[nH]c4ccccc34)n2)cc1NC(=O)c1ccc(NC(=O)/C=C/CN(C)C)cc1 [Formula I-20]
- IC50 (143B): > 5000 nM
- IC50 (SAOS): < 500 nM
- IC50 (CDK7): 20.9 nM
- IC50 (A673; Ewing's sarcoma cell line): < 500 nM
- IC50 (Hs863T): < 500 nM
- IC50 (hTERT-HME1; immortalized normal mammary epithelial cell line): < 500 nM
- IC50 (RS4-11; blood cancer cell line): < 500 nM
- IC50 (MNNG-HOS Cl#5): 500 to 5000 nM
- IC50 (THP-1; blood cancer cell line): < 500 nM
- IC50 (MCF7; breast cancer cell line): < 500 nM
- IC50 (Hs822T): < 500 nM
- IC50 (MLK3; read-out: Calculated IC50, MLK3): < 100 nM
- Percent inhibition, MLK3^b (MLK3; superscript b (footnote not given; tested at 100 nM and 1 μM)): C (less than 50% inhibition)
- IC50 (MCF10A): < 500 nM
- IC50 (SKBR3; breast cancer cell line): 500 to 5000 nM
- IC50 (RD-ES): < 500 nM
- IC50 (MDA-MB231; breast cancer cell line): < 500 nM
- Percent inhibition, IRAK1^b (IRAK1): C (less than 50% inhibition)
- IC50 (SK-ES): < 500 nM
- IC50 (T47D): 500 to 5000 nM
- IC50 (HL60; blood cancer cell line): < 500 nM
- IC50 (MV4-11; blood cancer cell line): < 500 nM

SMILES: CC(C)[C@]12O[C@H]1[C@@H]1O[C@]13[C@]1(O[C@H]1C[C@H]1C4=C(CC[C@@]13C)C(=O)OC4)[C@@H]2O [Triptolide, triptolide, reference compound]
- IC50 (143B; Homo sapiens, 143B): < 500 nM
- IC50 (SAOS): < 500 nM
- IC50 (A673; Homo sapiens, A673, Ewing's sarcoma cell line): < 500 nM
- IC50 (Hs863T): > 5000 nM
- IC50 (hTERT-HME1; hTERT-HME1, immortalized normal mammary epithelial cell line): < 500 nM
- IC50 (RS4-11; Homo sapiens, RS4-11, blood cancer cell line): < 500 nM
- IC50 (MNNG-HOS Cl#5): < 500 nM
- IC50 (THP-1; Homo sapiens, THP-1, blood cancer cell line): < 500 nM
- IC50 (MCF7; Homo sapiens, MCF7, breast cancer cell line): < 500 nM
- IC50 (Hs822T): 500 to 5000 nM
- IC50 (MCF10A; Homo sapiens, MCF-10A): < 500 nM
- IC50 (SKBR3; Homo sapiens, SK-BR-3, breast cancer cell line): < 500 nM
- IC50 (RD-ES; RD-ES): < 500 nM
- IC50 (MDA-MB231; Homo sapiens, MDA-MB-231, breast cancer cell line): < 500 nM
- IC50 (SK-ES): < 500 nM
- IC50 (T47D; Homo sapiens, T47D): > 5000 nM
- IC50 (HL60; Homo sapiens, HL-60, blood cancer cell line): < 500 nM
- IC50 (MV4-11; Homo sapiens, MV4-11, blood cancer cell line): < 500 nM
